Source: US11129807B2, “Methods of treating schizophrenia” (Sunovion Pharmaceuticals Inc., priority 2017, dated 2021)

Tests used:
[1] = system: PCP-Induced Hyperactivity Responses in Mice; assay: PCP-induced hyperactivity (open field) in mice;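 further: plus means significant inhibition of PCP hyperactivity at P below 0.05 and minus means none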; format: in vivo; settings: male C57Bl/6J mice, vs. vehicle + PCP
Experimental: (§1) Anti-psychotic like activity of the compounds was evaluated in mice using the PCP hyperactivity and Pre-Pulse Inhibition (PPI) models of schizophrenia.
(§2) Methods: Animals: Male C57Bl/6J mice from Jackson Laboratories (Bar Harbor, Me.) were used. Upon receipt, mice were assigned unique identification numbers (tail marked) and were group housed with 4 mice per cage in OptiMICE ventilated cages. All animals remained housed in groups of four during the remainder of the study. All mice were acclimated to the colony room for at least two weeks prior to testing. During the period of acclimation, mice were examined on a regular basis, handled, and weighed to assure adequate health and suitability. Animals were maintained on a 12/12 light/dark cycle. The room temperature was maintained between 20 and 23° C. with a relative humidity maintained between 30% and 70%. Chow and water were provided ad libitum for the duration of the study. In each test, animals were randomly assigned across treatment groups.
The analysis was configured to divide the open field into a center and periphery zone. Distance traveled was measured from horizontal beam breaks as the mouse moved whereas rearing activity was measured from vertical beam breaks.
Mice were injected with vehicle, test compound, or clozapine (1 mg/kg; i.p) and placed in the OF chambers for 30 min measurement of baseline activity. Mice were then injected with either water or PCP (5 mg/kg; i.p) and placed back in the OF chambers for a 60-minute session. At the end of each OF test session the OF chambers were thoroughly cleaned.

[2] = system: Pre-pulse Inhibition (PPI) in Mice; assay: Pre-pulse inhibition (PPI) of startle in mice;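 further: plus grades count prepulse intensities with significant PPI increase at P below 0.05 and minus means no change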; format: in vivo; settings: 30 min prior to PPI test, male C57Bl/6J mice, vs. vehicle
Experimental: as §1, §2
Prepulse Inhibition of Startle: The acoustic startle is an unconditioned reflex response to an external auditory stimulus. Prepulse inhibition of startle (PPI) refers to the reduction in the startle response caused by the presentation of a low-intensity auditory stimulus prior to the startle stimulus. The PPI paradigm is used for the study of schizophrenia and antipsychotic action due to the similarities between the results from human and rodent studies. […] Various psychotomimetic drugs such as PCP can disrupt PPI. In mice, antipsychotic drugs such as clozapine can reverse the disruption of PPI induced by PCP.
Mice were placed in the PPI chambers (Med Associates) for a 5 min session of white noise (70 dB) habituation. After the habituation period the test session was initiated. The session started with a habituation block of 6 presentations of the startle stimulus alone, followed by 10 PPI blocks, each of which consisted of 6 different types of trials. Trial types were: ‘null’ (no stimuli), ‘startle’ (120 dB), ‘startle plus prepulse’ (4, 8 and 12 dB over background noise, i.e., 74, 78 or 82 dB) and ‘prepulse’ (82 dB). Trial types were presented in a random order within each block. Each trial started with a 50 ms stimulus-free period during which baseline movements were recorded. This was followed by a subsequent 20 ms period during which the prepulse stimulus was presented and responses to the prepulse measured. After a further 100 ms period, the startle stimulus was presented for 40 ms and responses recorded for 100 ms from startle onset. Responses were sampled every ms. The inter-trial interval was variable with an average of 15 s (range from 10 to 20 s). In ‘startle’ trials the basic auditory startle response was measured. The basic startle response was calculated as the mean startle response of all ‘startle’ trials (i.e., excluding the first habituation block). In ‘startle plus prepulse’ trials the degree of inhibition of the normal startle was calculated and expressed as a percentage of the basic startle response.
Mice were treated with vehicle, haloperidol (1 mg/kg; i.p) or test compound 30 min prior to PPI test. The PPI enclosures were cleaned following each test.

[3] = 10 mg/kg Compound + PCP (5 mg/kg; i.p)
[4] = 30 mg/kg Compound + PCP (5 mg/kg; i.p)
[5] = 100 mg/kg Compound + PCP (5 mg/kg; i.p)
[6] = 0.3 mg/kg Compound + PCP (5 mg/kg; i.p)
[7] = 1 mg/kg Compound + PCP (5 mg/kg; i.p)
[8] = 3 mg/kg Compound + PCP (5 mg/kg; i.p)

Row | Compound | Total Distance Traveled (cm) [1, 3] | Total Distance Traveled (cm) [1, 4] | Total Distance Traveled (cm) [1, 5] | Effect on Pre-pulse Inhibition (PPI) ([2]; 10 mg/kg) | Effect on Pre-pulse Inhibition (PPI) ([2]; 30 mg/kg) | Effect on Pre-pulse Inhibition (PPI) ([2]; 100 mg/kg) | Total Distance Traveled (cm) [1, 6] | Total Distance Traveled (cm) [1, 7] | Total Distance Traveled (cm) [1, 8] | Effect on Pre-pulse Inhibition (PPI) ([2]; 3 mg/kg)
1 | CNCC1OCCc2scc(C)c21 (centres unmarked) [Compound 78] | + | + | + | − | − | − |  |  |  | 
2 | CCNC[C@H]1OCCc2sccc21 [Compound 311] | + | + |  | − | +++ |  | − | + | + | −
3 | CNCC1OCCc2sc(C)cc21 (centres unmarked) [Compound 5] | + | + | + | − | +++ | +++ |  |  |  | 
4 | CNCC1OCCc2sccc21 (centres unmarked) [Compound 4] | + | + | + | +++ | − | +++ | + | + | + | 
5 | CNC[C@@H]1OCCc2scc(C)c21 [Compound 130] | + | + | + | − | − |  | − | − | + | −
6 | CCc1cc2c(s1)CCO[C@H]2CNC [Compound 75] | + | − | + | − | − | − |  |  |  | 
7 | CNC[C@@H]1OCCc2sc(C)cc21 [Compound 57] | + | + | + | − | − | ++ |  |  |  | 
8 | CNC[C@H]1OCCc2c(C)csc21 [Compound 172] | − | − |  | − | − | − | − | + | + | −
9 | c1cc2c(s1)[C@@H]([C@H]1CCCN1)OCC2 [Compound 205] | + | + |  | − | +++ |  | + | + | + | −
10 | CNC[C@H]1OCCc2scc(C)c21 [Compound 131] |  |  |  | − | − |  | − | + | + | −
11 | c1cc2c(s1)CCO[C@@H]2[C@@H]1CCCN1 [Compound 119] | + | + | + |  |  |  |  |  |  | 
12 | CNC[C@@H]1OCCc2c(C)csc21 [Compound 171] | − | + |  | − | − | +++ | − | − | − | −
13 | CNC[C@H]1OCCc2sc(C)cc21 [Compound 58] | + | + | + | +++ | + | +++ |  |  |  | 
14 | C[C@H](N)[C@@H]1OCCc2ccsc21 [Compound 213] | + | + |  | +++ | +++ |  | + | + | + | −
15 | CCNC[C@@H]1OCCc2sccc21 [Compound 310] | + | + |  | − | +++ |  | + | − | − | −
16 | CNCC1OCCc2c(C)csc21 (centres unmarked) [Compound 140] | − | − | + | − | − | − |  |  |  | 
17 | CCNCC1OCCc2sccc21 (centres unmarked) [Compound 13] |  |  |  | − | − | +++ |  |  |  | 
